Test results as given in the supplement of paper PMC10307832.

What was measured:
Experiment in all cases: relative viability (nuclei count vs DMSO), 5 days (fraction); higher = more cells survive
[1] = tested on: NCI-H1975
How it was run: (§1)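 For relative viability, nuclei counts in treated wells were divided by those in vehicle wells. Lung cancer cell lines had been pin-tool dosed in 1536-well plates the day after seeding and cultured for 5 days, then fixed and stained in one step (final 0.05% Triton X-100, 1% formaldehyde, 1 ug/ml Hoechst) and imaged at 4×. Doses were one drug alone or a fixed anchor-drug dose plus five library-drug doses (not always all listed) in √10 steps, and values are duplicate-plate medians.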

[2] = tested on: SW 900
How it was run: as §1

[3] = tested on: HCC-366
How it was run: as §1

[4] = tested on: LXF-289
How it was run: as §1

[5] = tested on: NCI-H1793
How it was run: as §1

[6] = tested on: NCI-H1755
How it was run: as §1

[7] = tested on: LC-2-ad
How it was run: as §1

[8] = tested on: LU99A
How it was run: as §1

[9] = tested on: EPLC-272H
How it was run: as §1

[10] = tested on: NCI-H2170
How it was run: as §1

[11] = tested on: LCLC-97TM1
How it was run: as §1

[12] = tested on: UMC-11
How it was run: as §1

[13] = tested on: COR-L 105
How it was run: as §1

[14] = tested on: HOP-62
How it was run: as §1

[15] = tested on: HCC-78
How it was run: as §1

[16] = tested on: NCI-H1915
How it was run: as §1

[17] = tested on: NCI-H460
How it was run: as §1

[18] = tested on: NCI-H1944
How it was run: as §1

[19] = tested on: NCI-H1792
How it was run: as §1

[20] = tested on: NCI-H358
How it was run: as §1

[21] = tested on: A-427
How it was run: as §1

[22] = tested on: SK-LU-1
How it was run: as §1

[23] = tested on: NCI-H2342
How it was run: as §1

[24] = tested on: NCI-H2085
How it was run: as §1

## CC(C)Oc1cc(Nc2nc(N[C@@H](C)c3ccc(F)cn3)ncc2Cl)n[nH]1 [AZ23] + CC(=O)c1c(C)c2cnc(Nc3ccc(N4CCNCC4)cn3)nc2n(C2CCCC2)c1=O [Palbociclib] (partner 0.5 µM)
[1]; first compound 0.01 µM
  relative viability: 0.534
[1]; first compound 0.03162 µM
  relative viability: 0.703
[1]; first compound 0.3162 µM
  relative viability: 0.591
[2]; first compound 0.01 µM
  relative viability: 0.653
[2]; first compound 0.3162 µM
  relative viability: 0.501
[3]; first compound 0.01 µM
  relative viability: 0.303
[3]; first compound 0.03162 µM
  relative viability: 0.513
[3]; first compound 0.3162 µM
  relative viability: 0.458
[4]; first compound 0.01 µM
  relative viability: 0.739
[4]; first compound 0.03162 µM
  relative viability: 0.631
[4]; first compound 0.3162 µM
  relative viability: 0.534
[5]; first compound 0.01 µM
  relative viability: 0.347
[5]; first compound 0.03162 µM
  relative viability: 0.35
[5]; first compound 0.3162 µM
  relative viability: 0.247
[6]; first compound 0.01 µM
  relative viability: 0.472
[6]; first compound 0.03162 µM
  relative viability: 0.488
[6]; first compound 0.3162 µM
  relative viability: 0.49
[7]; first compound 0.01 µM
  relative viability: 0.593
[7]; first compound 0.03162 µM
  relative viability: 0.529
[7]; first compound 0.3162 µM
  relative viability: 0.501
[8]; first compound 0.01 µM
  relative viability: 0.39
[8]; first compound 0.03162 µM
  relative viability: 0.468
[8]; first compound 0.3162 µM
  relative viability: 0.371
[9]; first compound 0.03162 µM
  relative viability: 0.279
[9]; first compound 0.3162 µM
  relative viability: 0.315
[10]; first compound 0.01 µM
  relative viability: 0.451
[10]; first compound 0.03162 µM
  relative viability: 0.645
[10]; first compound 0.3162 µM
  relative viability: 0.473
[11]; first compound 0.01 µM
  relative viability: 0.261
[11]; first compound 0.03162 µM
  relative viability: 0.248
[11]; first compound 0.3162 µM
  relative viability: 0.203
[12]; first compound 0.01 µM
  relative viability: 0.341
[12]; first compound 0.03162 µM
  relative viability: 0.338
[12]; first compound 0.3162 µM
  relative viability: 0.353
[13]; first compound 0.01 µM
  relative viability: 0.53
[13]; first compound 0.03162 µM
  relative viability: 0.463
[13]; first compound 0.3162 µM
  relative viability: 0.396
[14]; first compound 0.01 µM
  relative viability: 0.507
[14]; first compound 0.03162 µM
  relative viability: 0.467
[14]; first compound 0.3162 µM
  relative viability: 0.437
[15]; first compound 0.01 µM
  relative viability: 0.533
[15]; first compound 0.03162 µM
  relative viability: 0.463
[15]; first compound 0.3162 µM
  relative viability: 0.544
[16]; first compound 0.01 µM
  relative viability: 0.571
[16]; first compound 0.03162 µM
  relative viability: 0.492
[16]; first compound 0.3162 µM
  relative viability: 0.5
[17]; first compound 0.01 µM
  relative viability: 0.0638
[17]; first compound 0.03162 µM
  relative viability: 0.146
[17]; first compound 0.3162 µM
  relative viability: 0.127
[18]; first compound 0.01 µM
  relative viability: 0.304
[18]; first compound 0.03162 µM
  relative viability: 0.342
[18]; first compound 0.3162 µM
  relative viability: 0.278
[19]; first compound 0.01 µM
  relative viability: 0.737
[19]; first compound 0.03162 µM
  relative viability: 0.617
[19]; first compound 0.3162 µM
  relative viability: 0.645
[20]; first compound 0.01 µM
  relative viability: 0.129
[20]; first compound 0.03162 µM
  relative viability: 0.141
[20]; first compound 0.3162 µM
  relative viability: 0.13
[21]; first compound 0.01 µM
  relative viability: 0.459
[21]; first compound 0.03162 µM
  relative viability: 0.524
[21]; first compound 0.3162 µM
  relative viability: 0.586
[22]; first compound 0.03162 µM
  relative viability: 0.416
[22]; first compound 0.3162 µM
  relative viability: 0.414
[23]; first compound 0.01 µM
  relative viability: 0.516
[23]; first compound 0.03162 µM
  relative viability: 0.511
[23]; first compound 0.3162 µM
  relative viability: 0.509
[24]; first compound 0.01 µM
  relative viability: 0.435
[24]; first compound 0.03162 µM
  relative viability: 0.469
[24]; first compound 0.3162 µM
  relative viability: 0.435

## CC(C)Oc1cc(Nc2nc(N[C@@H](C)c3ccc(F)cn3)ncc2Cl)n[nH]1 [AZ23] + Nc1nc2[nH]cc(CCc3ccc(C(=O)N[C@@H](CCC(=O)O)C(=O)O)cc3)c2c(=O)[nH]1 [Pemetrexed] (partner 0.2 µM)
[1]; first compound 0.01 µM
  relative viability: 0.272
[1]; first compound 0.03162 µM
  relative viability: 0.296
[1]; first compound 0.3162 µM
  relative viability: 0.312
[2]; first compound 0.01 µM
  relative viability: 0.491
[2]; first compound 0.3162 µM
  relative viability: 0.514
[3]; first compound 0.01 µM
  relative viability: 0.0994
[3]; first compound 0.03162 µM
  relative viability: 0.186
[3]; first compound 0.3162 µM
  relative viability: 0.171
[4]; first compound 0.01 µM
  relative viability: 1.02
[4]; first compound 0.03162 µM
  relative viability: 0.974
[4]; first compound 0.3162 µM
  relative viability: 0.99
[5]; first compound 0.01 µM
  relative viability: 0.986
[5]; first compound 0.03162 µM
  relative viability: 0.92
[5]; first compound 0.3162 µM
  relative viability: 0.979
[6]; first compound 0.01 µM
  relative viability: 0.401
[6]; first compound 0.03162 µM
  relative viability: 0.459
[6]; first compound 0.3162 µM
  relative viability: 0.468
[7]; first compound 0.01 µM
  relative viability: 0.275
[7]; first compound 0.03162 µM
  relative viability: 0.279
[7]; first compound 0.3162 µM
  relative viability: 0.297
[8]; first compound 0.01 µM
  relative viability: 0.146
[8]; first compound 0.03162 µM
  relative viability: 0.199
[8]; first compound 0.3162 µM
  relative viability: 0.209
[9]; first compound 0.03162 µM
  relative viability: 0.322
[9]; first compound 0.3162 µM
  relative viability: 0.302
[10]; first compound 0.01 µM
  relative viability: 0.261
[10]; first compound 0.03162 µM
  relative viability: 0.265
[10]; first compound 0.3162 µM
  relative viability: 0.256
[11]; first compound 0.01 µM
  relative viability: 0.138
[11]; first compound 0.03162 µM
  relative viability: 0.193
[11]; first compound 0.3162 µM
  relative viability: 0.166
[12]; first compound 0.01 µM
  relative viability: 0.802
[12]; first compound 0.03162 µM
  relative viability: 0.814
[12]; first compound 0.3162 µM
  relative viability: 0.791
[13]; first compound 0.01 µM
  relative viability: 0.902
[13]; first compound 0.03162 µM
  relative viability: 1.24
[13]; first compound 0.3162 µM
  relative viability: 1.1
[14]; first compound 0.01 µM
  relative viability: 0.287
[14]; first compound 0.03162 µM
  relative viability: 0.359
[14]; first compound 0.3162 µM
  relative viability: 0.359
[15]; first compound 0.01 µM
  relative viability: 0.976
[15]; first compound 0.03162 µM
  relative viability: 0.902
[15]; first compound 0.3162 µM
  relative viability: 0.938
[16]; first compound 0.01 µM
  relative viability: 0.463
[16]; first compound 0.03162 µM
  relative viability: 0.485
[16]; first compound 0.3162 µM
  relative viability: 0.607
[17]; first compound 0.01 µM
  relative viability: 0.0522
[17]; first compound 0.03162 µM
  relative viability: 0.0661
[17]; first compound 0.3162 µM
  relative viability: 0.0611
[18]; first compound 0.01 µM
  relative viability: 0.314
[18]; first compound 0.03162 µM
  relative viability: 0.824
[18]; first compound 0.3162 µM
  relative viability: 0.665
[19]; first compound 0.01 µM
  relative viability: 0.813
[19]; first compound 0.03162 µM
  relative viability: 0.912
[19]; first compound 0.3162 µM
  relative viability: 1
[20]; first compound 0.01 µM
  relative viability: 0.151
[20]; first compound 0.03162 µM
  relative viability: 0.175
[20]; first compound 0.3162 µM
  relative viability: 0.17
[21]; first compound 0.01 µM
  relative viability: 0.797
[21]; first compound 0.03162 µM
  relative viability: 1.01
[21]; first compound 0.3162 µM
  relative viability: 1.15
[22]; first compound 0.03162 µM
  relative viability: 1.13
[22]; first compound 0.3162 µM
  relative viability: 1.06
[23]; first compound 0.01 µM
  relative viability: 0.903
[23]; first compound 0.03162 µM
  relative viability: 0.811
[23]; first compound 0.3162 µM
  relative viability: 0.776
[24]; first compound 0.01 µM
  relative viability: 0.806
[24]; first compound 0.03162 µM
  relative viability: 0.907
[24]; first compound 0.3162 µM
  relative viability: 0.994
